In patent US20180038865A1, “CD9 AS A THERAPEUTIC TARGET FOR HEMATOLOGIC MALIGNANCIES” (The Chinese and Knowledge Transfer Services, priority 2016, published 2018):

Experiments:
Assay in all cases: Apoptosis assay (Annexin V/7-AAD), vincristine, monoculture or stromal co-culture
Type in all cases: cell-based, human
[1] = system: RS4;11; details: vincristine 12.5 nM, 3 days
Method: (§1) […]: In vitro and in vivo effects of CD9 antibody on chemosensitivity of B-ALL cells. (FIG. 4A) B-ALL cell lines were treated with vincristine (VCR, 12.5 nM) for 3 days in monoculture or stromal co-culture. Apoptosis was monitored by Annexin V/7-AAD staining (n=4). (FIG. 4B) 697 cells were treated with VCR (12.5 nM) in stromal co-cultures for 3 days, in the presence of control IgG or anti-CD9 (ALB6, 10 μg/mL), and measured for apoptosis (n=4). (FIG. 4C) NOD/SCID mice were transplanted with 697 cells and treated with IgG alone, anti-CD9 alone (ALB6, 20 μg/mouse), IgG+VCR (0.8 mg/kg) or anti-CD9 + VCR. Antibodies and VCR were given twice a week for 2 weeks. Animal survival was analyzed (4-5 mice/group). Data are means±SEM. Statistics: (A and B) two-tailed, paired Student's t-test, (FIG. 4C) log-rank test. *P<0.05, **P<0.01.
(§2) B-ALL cell lines (1×10^5) were cultured with or without monolayers of BM stromal cells, and exposed to 10 μg/mL of control IgG or CD9 antibody (ALB6). Cells were then treated with vincristine (12.5 nM; Sigma Aldrich) for 3 days at 37° C. Apoptotic cell death was monitored using the Annexin V/7-AAD Apoptosis Detection Kit (BD Biosciences).

[2] = system: 697 cells; details: vincristine 12.5 nM, 3 days
Method: as §1, §2

[3] = system: Reh cells; details: vincristine 12.5 nM, 3 days; CD9low Reh
Method: as §1, §2

[4] = system: SUP-B15; details: vincristine 12.5 nM, 3 days
Method: as §1, §2

CC[C@]1(O)C[C@H]2CN(CCc3c([nH]c4ccccc34)[C@@](C(=O)OC)(c3cc4c(cc3OC)N(C=O)[C@H]3[C@@](O)(C(=O)OC)[C@H](OC(C)=O)[C@]5(CC)C=CCN6CC[C@]43[C@@H]65)C2)C1 [vincristine]
vincristine-mediated apoptotic cell death, stromal co-culture vs monoculture [1]: reduced | vincristine-mediated apoptotic cell death, stromal co-culture vs monoculture [2]: reduced | protective effect of stromal cells against vincristine-mediated apoptotic cell death [3]: absent | vincristine-mediated apoptotic cell death, stromal co-culture vs monoculture [4]: reduced
